# Data from patent US20250052744A1, “Dyes and Uses Thereof” (The University of Liverpool, priority 2021, published 2025).
# Assays:
# Assay in all cases: Bacterial growth with dyes, optical density after 24 hours
# Assay type in all cases: cell-based
# Conditions in all cases: with 3 μM DiSC3(5) and 3 μM SYTO 13/9
# E. Coli SEC 31 = tested on: E. Coli SEC 31
# Protocol: (§1) FIG. 3 is a graph showing is a graph showing the average optical density after 24 hours (OD 600) of P. Aeruginosa NCTC 10332, E. Coli SEC 31, Enterococcus faecium NCTCT 7171, P. Mirabilis NCTC 11938, S. Aureus NCTC 8532 and Klebsiella pneumoniae NCTC 9633, when incubated with DiSC3(5), SYBR Green I and SYTO 13/9 where different concentrations of SYBR Green I were assessed.
# as §1, with “FIG. 4” for “FIG. 3”, “of SYTO 13/9” for “of SYBR Green I”
# (§2) Comparative experiments were conducted using multiple DNA dyes in low concentration and one DNA at different (and higher) concentration in order to establish whether increasing DNA dye concentration would affect bacterial growth and hinder the differentiation of bacterial strains.
# (§3) Experiments were conducted which were similar to Example 1.
# (§4) In one experiment, 3 μM of DiSC3(5) and 3 μM of SYTO 13/9 was assessed with CYBR Green I at the following concentrations: 1× average, 3× average, 10× average, 30 average and 100× average.
# (§5) In another experiment, 3 μM of DiSC3(5) and 10× of CYBR Green I was assessed with SYTO 13/9 at the following concentrations: 1 μM average, 3 μM average and 10 μM average.
# [1] = tested on: Enterococcus faecium NCTCT 7171
# Protocol: as §1
# as §1, with “FIG. 4” for “FIG. 3”, “of SYTO 13/9” for “of SYBR Green I”
# as §2, §3, §4, §5
# [2] = tested on: Klebsiella pneumoniae NCTC 9633
# Protocol: as §1
# as §1, with “FIG. 4” for “FIG. 3”, “of SYTO 13/9” for “of SYBR Green I”
# as §2, §3, §4, §5
# S. Aureus NCTC 8532 = tested on: S. Aureus NCTC 8532
# Protocol: as §1
# as §1, with “FIG. 4” for “FIG. 3”, “of SYTO 13/9” for “of SYBR Green I”
# as §2, §3, §4, §5
smiles,measurement,setting,value
"CCCN(CCCN(C)C)c1cc(/C=C2/Sc3ccccc3N2C)c2ccccc2[n+]1-c1ccccc1 [SYBR Green I, N′,N′-dimethyl-N-[4-[(E)-(3-methyl-1,3-benzothiazol-2-ylidene)methyl]-1-phenylquinolin-1-ium-2-yl]-N-propylpropane-1,3-diamine]",average optical density after 24 hours (OD 600),E. Coli SEC 31; SYBR Green I 1x,3.407
same,average optical density after 24 hours (OD 600),E. Coli SEC 31; SYBR Green I 3x,3.306
same,average optical density after 24 hours (OD 600),E. Coli SEC 31; SYBR Green I 10x,3.139
same,average optical density after 24 hours (OD 600),E. Coli SEC 31; SYBR Green I 30x,2.086
same,average optical density after 24 hours (OD 600),E. Coli SEC 31; SYBR Green I 100x,2.514
same,average optical density after 24 hours (OD 600),[1]; SYBR Green I 1x,1.158
same,average optical density after 24 hours (OD 600),[1]; SYBR Green I 3x,1.315
same,average optical density after 24 hours (OD 600),[1]; SYBR Green I 10x,0.136
same,average optical density after 24 hours (OD 600),[1]; SYBR Green I 30x,0
same,average optical density after 24 hours (OD 600),[1]; SYBR Green I 100x,0.022
same,average optical density after 24 hours (OD 600),[2]; SYBR Green I 1x,4.719
same,average optical density after 24 hours (OD 600),[2]; SYBR Green I 3x,4.907
same,average optical density after 24 hours (OD 600),[2]; SYBR Green I 10x,3.439
same,average optical density after 24 hours (OD 600),[2]; SYBR Green I 30x,2.053
same,average optical density after 24 hours (OD 600),[2]; SYBR Green I 100x,1.138
same,average optical density after 24 hours (OD 600),S. Aureus NCTC 8532; SYBR Green I 1x,3.796
same,average optical density after 24 hours (OD 600),S. Aureus NCTC 8532; SYBR Green I 3x,0
same,average optical density after 24 hours (OD 600),S. Aureus NCTC 8532; SYBR Green I 10x,0
same,average optical density after 24 hours (OD 600),S. Aureus NCTC 8532; SYBR Green I 30x,0
same,average optical density after 24 hours (OD 600),S. Aureus NCTC 8532; SYBR Green I 100x,0
